Measured values taken from PubChem BioAssay (NCI).
“And” between values parts separate entries of the source, which are not always exact repeats. Equal entries are not always repeated.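 Tested at 5 concentrations; 48 h exposure; 96-well plates; endpoints linearly interpolated, else capped at highest concentration. Abbreviation: GI50, concentration required for 50% inhibition of growth. TGI: concentration producing complete growth inhibition.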

Key:
Experiment in all cases: DTP human tumour cell line panel, 48 h
[1] = system: K-562 leukemia
[2] = system: DLD-1 colon
[3] = system: OVCAR-3 ovarian
[4] = system: HOP-92 NSCLC
[5] = system: M19-MEL melanoma
[6] = system: RPMI-8226 leukemia
[7] = system: SNB-78 CNS
[8] = system: SR leukemia
[9] = system: HS 578T breast
[10] = system: MDA-MB-231 breast
[11] = system: PC-3 prostate
[12] = system: MDA-N

| SMILES | TGI [1] | TGI [2] [µM] | TGI [3] | TGI [4] [µM] | TGI [5] | TGI [6] [µM] | TGI [7] [µM] | TGI [8] [µM] | TGI [9] [µM] | TGI [10] [µM] | TGI [11] [µM] | TGI [12] [µM] | GI50 [3] | GI50 [4] | GI50 [7] |
| --- | --- | --- | --- | --- | --- | --- | --- | --- | --- | --- | --- | --- | --- | --- | --- |
| Nc1cccc2c1C(=O)c1cccc(N)c1C2=O | > 100 µM | > 100 | > 100 µM | > 100 | > 100 µM | > 100 | > 100 |  |  |  |  |  |  |  |  |
| Cc1cc(C)c(P2C(=C(O[Si](C(C)C)(C(C)C)C(C)C)C(C)(C)C)C2(c2ccccc2)c2ccccc2)c(C)c1 (configuration not stated) | > 100 µM |  | > 100 µM | > 100 |  | > 100 |  | > 100 | > 100 | > 100 | > 100 | > 100 |  |  |  |
| Cc1ccccc1-n1c(C)nc2c1C(=O)c1ccccc1C2=O | > 100 µM |  | 61.8 µM |  | 48.5 µM |  | > 100 | > 100 |  |  |  |  |  |  |  |
| [Cl][Pt+2][Cl].[NH-]C1CCCCC1[NH-] (configuration not stated) | > 100 µM and 17.8 µM | > 100 | > 59.4 µM and > 47.2 µM and 20.8 µM | > 100 | 23.9 µM and 25.7 µM and 10.6 µM | > 50.5 | > 100 |  |  |  |  |  | 9.42 µM and 6.62 µM and 2.98 µM | 35.3 µM and > 100 µM and 29.7 µM | 29 µM and 30 µM and 11.5 µM |
| Cc1ccncc1.F[B-](F)(F)F.[Pt+2].c1ccc(-c2cccc(-c3ccccn3)n2)nc1 | > 100 µM |  | > 44.3 µM | > 100 |  | 32.9 |  | > 100 | > 45 | > 100 | > 100 | > 100 | 0.835 µM | 10.2 µM |  |
| COc1cc(/C=C/C(=O)c2c(=O)o[nH][n+]2-c2ccccc2)ccc1[O-] | 8.61 µM |  | 4.82 µM | 7.39 |  | 5.55 |  | 4.54 | 9.6 | 12.4 | 21.7 | 6.25 |  |  |  |
| COC(=O)C1CCC(=O)N1C(=O)Cc1ccc(OC)cc1 (configuration not stated) |  |  | > 100 µM | > 100 | > 100 µM |  | > 100 |  |  |  |  |  |  |  |  |
| Cc1ccc(S(=O)(=O)NNC(=O)c2cc(C)ccc2NC(=O)C23CC4CC(CC(C4)C2)C3)cc1 | > 100 µM |  | > 100 µM | 91.5 |  | > 100 |  | > 100 | > 100 | > 100 | > 100 | > 100 |  |  |  |
| OCC1OC(n2cnc3cncnc32)C(O)C1O (configuration not stated) | 9.77 µM | 1.82 | 4.94 µM | 4.21 | 14.1 µM | 7.95 | 39.1 |  |  |  |  |  |  |  |  |
| NC(=S)N/N=C\c1ccc(OCc2cccc(COc3ccc(/C=N/NC(N)=S)cc3)n2)cc1 | > 100 µM |  | > 100 µM | > 100 |  | > 100 |  | > 100 | > 100 | 76 | > 100 | > 100 |  |  |  |
| Cc1ccc(C(C)(C)C[P+](C)(c2ccccc2)c2ccccc2)cc1 | 46 µM | > 100 | 22.2 µM | 9.5 | > 89 µM | 6.7 | 88.1 |  |  |  |  |  |  |  |  |
